These results are taken from US10273246B2, “Methods and compositions of substituted 5H-[1,2,5] oxadiazolo [3′,4′:5,6] pyrazino[2,3-B] indole analogs as inhibitors of β-catenin/T-cell factor protein-protein interactions” (University of Utah Research Foundation, priority 2015, dated 2019).

One experiment relates to HT29 cells. In words: MTs cell viability assay, HT29. In kind it is cell-based. Particulars: Homo sapiens, HT-29, 72 h, read-out: IC50 ± SD HT29. As to the method: (§1) Colorectal cancer cell lines, SW480, HT29, an HCT116, and human normal cell line HEK293 were seeded in 96-well plates at 4×10^3 cells/well, maintained overnight at 37° C., and incubated with the tested compounds at various concentrations. Cell viability was monitored after 72 h using a freshly prepared mixture of 1 part phenazine methosulfate (PMS, Sigma) solution (0.92 mg/mL) and 19 parts 3-(4,5-dimethylthiazol-2-yl)-5-(3-carboxymethoxyphenyl)-2-(4-sulfophenyl)-2H-tetrazolium (MTs, Promega) solution (2 mg/mL). Cells were incubated in 10 μL of this solution at 37° C. for 3 h, and A490 was measured. […] Experiments were performed in triplicate.

The next experiment deals with SW480 cells. In words: MTs cell viability assay, SW480. In kind it is cell-based, human. As to conditions: for IC50: Homo sapiens, SW480, MTs cell viability, 72 h, read-out: IC50 ± SD SW480; for growth of SW480 cells: result in words, MTs. As to the method:
as §1

The next experiment has as its system HCT116 cells. In words: MTs cell viability assay, HCT116. As to conditions: for IC50: Homo sapiens, HCT-116, MTs cell viability, 72 h, read-out: IC50 ± SD HCT116; for growth of HCT116 cells: result in words, MTs. In kind it is cell-based, human. How it is done:
as §1

The target in experiment [1] is T1, β-catenin/Tcf4 PPI (Homo sapiens, UniProt P35222).
T1 sequence (P35222 138-686): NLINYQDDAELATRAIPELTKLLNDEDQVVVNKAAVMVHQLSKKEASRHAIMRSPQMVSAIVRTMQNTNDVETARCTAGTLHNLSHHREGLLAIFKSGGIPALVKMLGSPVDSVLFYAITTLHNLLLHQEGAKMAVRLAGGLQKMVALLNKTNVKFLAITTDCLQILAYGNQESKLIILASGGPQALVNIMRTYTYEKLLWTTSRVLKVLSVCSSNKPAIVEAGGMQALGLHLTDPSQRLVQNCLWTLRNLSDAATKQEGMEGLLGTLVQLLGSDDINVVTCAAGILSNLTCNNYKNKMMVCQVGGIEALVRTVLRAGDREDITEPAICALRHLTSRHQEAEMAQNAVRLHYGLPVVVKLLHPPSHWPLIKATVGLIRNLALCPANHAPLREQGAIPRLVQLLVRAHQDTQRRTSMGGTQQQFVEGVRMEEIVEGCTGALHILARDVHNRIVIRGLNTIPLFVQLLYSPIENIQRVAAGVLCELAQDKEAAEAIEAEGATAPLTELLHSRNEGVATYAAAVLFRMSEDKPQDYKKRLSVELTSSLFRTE
As to conditions: for inhibitory potency for the β-catenin/Tcf PPI in the biochemical assays: result in words, FP and AlphaScreen. (In Alpha technology, singlet oxygen from a donor bead excites a nearby acceptor bead.)
Excerpt: (§3) After β-catenin and fluorescein-Tcf4 form a protein-protein complex, the fluorophore is attached to a high-molecular-weight protein complex (≥60 kDa) and has a low rotational speed when it is excited by plane-polarized light. […] When an inhibitor completely disrupts the β-catenin/fluorescein-Tcf4 PPI, the fluorophore is only attached to Tcf4 (≤6 kDa), and the emitted light after excitation will be largely depolarized due to a high rotational speed of the fluorophore. AlphaScreen is a bead-based assay. […] On laser excitation at 680 nm, the photo sensitizers inside the donor beads convert ambient oxygen to a singlet oxygen state. Only when the donor and acceptor beads are brought within 200 nm can the singlet oxygen molecules diffuse to the acceptor beads, resulting in extensive emission at 570 nm.

Experiment [2] deals with T1, β-catenin/Tcf4 PPI.
Excerpt: as §3
For experiment [3], the system named is canonical Wnt signaling in pcDNA3.1-β-catenin transfected HEK293 cells. In words: TOPFlash luciferase reporter assay, HEK293. In kind it is cell-based, human. Particulars: for TOPFlash luciferase activity / transactivation of canonical Wnt signaling: result in words, Wnt-activated HEK293. How it is done:
(§2) FuGENE 6 (E2962, Promega) in a 96-well plate format was used for the transfection of HEK293 and SW480 cells according to the manufacturer's instructions. […] SW480 cells were co-transfected with 60 ng of the TOPFlash or FOPFlash reporter gene and 40 ng pCMV-RL normalization reporter. Cells were cultured in DMEM and 10% fatal bovine serum at 37° C. for 24 h, and different concentrations of inhibitors were then added. After 24 h, the luciferase reporter activity was measured using the Dual-Glo system (E2940, Promega). Normalized luciferase activity in response to the treatment with the inhibitors was compared with that obtained from the cells treated with DMSO. Experiments were performed in triplicate.
(In general: Reporter assays use an easily measured gene product as a stand-in for the process of interest.)

Experiment [4] has as its system Wnt/β-catenin target genes in SW480 cells.
Description: Total RNAs were extracted with TRIzol (Ser. […] The threshold cycle (CT) values were normalized to that of internal reference GAPDH. The primer pairs for human GAPDH were forward: [NT] and reverse: [NT]; for human HPRT forward: [NT] and reverse: [NT]; for human AXIN2 forward: [NT] and reverse: [NT]; for human c-myc forward: [NT] and reverse: [NT]; and for human cyclin D1 forward: [NT] and reverse: [NT]. Experiments were performed in triplicate.
The test system of experiment [5] is FOPFlash luciferase (reporter with eight mutant Tcf binding sites). In kind it is cell-based, human. As to the method: as §2
Experiment [6] deals with T1, β-catenin/Tcf4 PPI. In words: biochemical.
Excerpt: as §3
For a further experiment, the target named is T2, β-catenin/Tcf4 (Homo sapiens, UniProt P35222).
T2 sequence (P35222 138-686): T1 sequence (P35222 138-686)
As to conditions: FP selectivity assay, known inhibitors, footnotes a, b; read-out: Ki ± SD β-catenin/Tcf4; cited from earlier work.

In another experiment the target is T3, β-catenin/APC-R3 (Homo sapiens, UniProt P35222).
T3 construct: Wild-type β-catenin and its mutants (residues 138-686) were cloned; 6xHis; made in house; host or cells: E. coli BL21 DE3
T3 sequence (P35222 138-686): T1 sequence (P35222 138-686)
Particulars: FP selectivity assay, known inhibitors, footnotes a, b; read-out: Ki ± SD β-catenin/APC-R3; cited from earlier work.

[7] abbreviates: read-out: Ki ± SD FP, Table 8, resynthesized 18 and derivatives.
Setting [8] is: read-out: Ki ± SD AlphaScreen, Table 8, resynthesized 18 and derivatives.
Where [9] appears, read: read-out: FP Ki ± SD, Table 6, fragments of 18.

Where two headings read alike, the source gives them in different places.

In general, IC50 refers to the point on the concentration scale where inhibition reaches its midpoint. On to `O=C(O)c1ccc2nc(-c3ccc(Cl)cc3)c(-c3ccc(Cl)cc3)nc2c1` [Compound 15], for which the 50% inhibitory concentration (IC50) in the experiment on HT29 cells worked out at 41 ± 1 µM; with SW480 cells, 38 ± 1.1 µM; in the experiment with HCT116 cells, 22 ± 5.9 µM.

Take `c1ccc2c(c1)[nH]c1nc3nonc3nc12` [Compound 27, 5H-[1,2,5]Oxadiazolo[3′,4′:5,6]Pyrazino[2,3-B]Indole]: the Ki on β-catenin/Tcf4 PPI [1] (setting [7]) worked out at 280 ± 12 µM; at β-catenin/Tcf4 PPI [2] (setting [8]), 120 ± 8.7 µM. Also, the “inhibitory potency for the β-catenin/Tcf PPI in the biochemical assays” value at β-catenin/Tcf4 PPI [1] is “poor inhibitory potency”.

As to `COC(=O)CCn1c2ccccc2c2nc3nonc3nc21` [Compound 30, Methyl 3-(5H-[1,2,5]Oxadiazolo[3′,4′:5,6]Pyrazino[2,3-B]Indol-5-yl)Propanoate], in the experiment with SW480 cells, the “growth of SW480 cells” value was “did not exhibit the inhibitory activities”. In addition, the “growth of HCT116 cells” value in the experiment on HCT116 cells was “did not exhibit the inhibitory activities”.

As for `Nc1nonc1NC(=O)Cn1c2ccccc2c2nc3nonc3nc21` [Compound 26, 2-(5H-[1,2,5]Oxadiazolo[3′,4′:5,6]Pyrazino[2,3-B]Indol-5-yl)-N-(4-Amino-1,2,5-Oxadiazol-3-yl)Acetamide], the “growth of SW480 cells” value in the experiment with SW480 cells is given as “did not exhibit the inhibitory activities”. The “growth of HCT116 cells” value in the experiment on HCT116 cells was “did not exhibit the inhibitory activities”. The “TOPFlash luciferase activity / transactivation of canonical Wnt signaling” value in [3] is recorded as “did not inhibit”.

Take `O=C(O)c1cc2nc(-c3ccc4c(c3)OCO4)c(-c3ccc4c(c3)OCO4)nc2cc1O` [Compound 17]: the IC50 is 300 µM with HT29 cells; 110 ± 21 µM in the experiment on SW480 cells; 250 ± 21 µM in the experiment with HCT116 cells; over 100 µM in [3] (Homo sapiens, pcDNA3.1-β-catenin transfected HEK293, 24 h, read-out: TOPFlash IC50 ± SD Wnt-activated HEK293). For the same compound, the Ki at β-catenin/Tcf4 PPI [1] (read-out: Ki + SD FP, Table 3, purchased screening hits) came to 8.7 ± 1 µM; on β-catenin/Tcf4 PPI [2] (read-out: Ki + SD AlphaScreen, Table 3, purchased screening hits), 12 ± 0.78 µM.

`c1ccc2c(c1)c1nc3nonc3nc1n2CCc1nnn[nH]1` [Compound 37, 5-(2-(2H-Tetrazol-5-yl)Ethyl)-5H-[1,2,5]Oxadiazolo[3′,4′:5,6]Pyrazino[2,3-B]Indole]: in the experiment on SW480 cells, the IC50 was 20 µM. Also, the “expression of house-keeping gene HPRT” value in [4] (SW480) was “did not affect”. In [4] (SW480, dose-dependent), the “expression of AXIN2, cyclin D1, and c-myc (mRNA)” value is reported as “down-regulated”. The FOPFlash luciferase activity result in experiment [5] (even at 200 μM, pcDNA3.1-β-catenin transfected HEK293) is listed as “did not affect”. Besides, in experiment [3], the “TOPFlash luciferase activity / transactivation of canonical Wnt signaling” value is listed as “suppressed the TOPFlash luciferase activity in a dose-dependent manner”.

For the compound `CCOC(=O)CCCn1c2ccccc2c2nc3nonc3nc21` [Compound 32, Ethyl 4-(5H-[1,2,5]Oxadiazolo[3′,4′:5,6]Pyrazino[2,3-B]Indol-5-yl)Butanoate], in the experiment with SW480 cells, the “growth of SW480 cells” value is on record as “did not exhibit the inhibitory activities”. Moreover, in the experiment with HCT116 cells, the “growth of HCT116 cells” value is “did not exhibit the inhibitory activities”.

Consider `O=C1c2ccccc2-c2nc3nonc3nc21` [Compound 19B, 9H-Indeno[1,2-B][1,2,5]Oxadiazolo[3,4-E]Pyrazin-9-One], for which, on β-catenin/Tcf4 PPI [1] (setting [9]), the Ki was found to be 310 ± 11 µM. Further, the “inhibitory potency for the β-catenin/Tcf PPI in the biochemical assays” value at β-catenin/Tcf4 PPI [1] was “some inhibitory activities”.

As for `N#CCCCn1c2ccccc2c2nc3nonc3nc21` [Compound 36, 4-(5H-[1,2,5]Oxadiazolo[3′,4′:5,6]Pyrazino[2,3-B]Indol-5-yl)Butanenitrile], the Ki on β-catenin/Tcf4 PPI [1] (setting [7]) turned out to be 160 ± 8.9 µM; on β-catenin/Tcf4 PPI [2] (setting [8]) it was 120 ± 4.2 µM.

For the compound `Nc1nonc1C(=O)NCc1ccccc1` [Compound 25], at β-catenin/Tcf4 PPI [1] (setting [9]), the Ki stood at 1700 ± 37 µM. On β-catenin/Tcf4 PPI [1], the “inhibitory potency for the β-catenin/Tcf PPI in the biochemical assays” value was “some inhibitory activities”.

With `O=C(O)CCCn1c2ccccc2c2nc3nonc3nc21` [Compound 33, 4-(5H-[1,2,5]Oxadiazolo[3′,4′:5,6]Pyrazino[2,3-B]Indol-5-yl)Butanoic Acid], the “growth of SW480 cells” value in the experiment on SW480 cells is given as “did not exhibit the inhibitory activities”. Moreover, in the experiment on HCT116 cells, the “growth of HCT116 cells” value is on record as “did not exhibit the inhibitory activities”. The “TOPFlash luciferase activity / transactivation of canonical Wnt signaling” value in experiment [3] was “did not inhibit”.

Regarding `NC(=O)c1nonc1N` [Compound 22], on β-catenin/Tcf4 PPI [6], the Ki was over 2000 µM.

Turning to `O=C(O)c1cc(-c2ccc(Oc3ccc(Cl)cc3)cc2)on1` [Compound 16], the values for the IC50 in the experiment on HT29 cells, with SW480 cells and in the experiment on HCT116 cells were 430 ± 25 µM, over 400 µM and over 400 µM, respectively.

On to `NC(=S)N/N=C1/c2ccccc2-c2nc3nonc3nc21` [Compound 21], for which, on β-catenin/Tcf4 PPI [1] (setting [9]), the Ki was 240 ± 4.6 µM. Moreover, the “inhibitory potency for the β-catenin/Tcf PPI in the biochemical assays” value at β-catenin/Tcf4 PPI [1] is given as “some inhibitory activities”.

In turn, `CC(C)CNC(=O)c1nonc1N` [Compound 24] came in with a Ki on β-catenin/Tcf4 PPI [6] of over 2000 µM.

Turning to `CCc1ccc(-c2nc(CSCC(=O)NCCc3ccccc3)c(C)o2)cc1` [Compound 8, reference compound], the “FOPFlash luciferase reporter activity” value in [5] (reference inhibitors) was “inhibited”.

For the compound `N/N=C1/c2ccccc2-c2nc3nonc3nc21` [Compound 20, (Z)-9-Hydrazono-9H-Indeno[1,2-B][1,2,5]Oxadiazolo[3,4-E]Pyrazine], the Ki on β-catenin/Tcf4 PPI [1] (setting [9]) was found to be 230 ± 6.2 µM.

As to `COC1=C(C[C@H](C)O)C2c3c(c(O)cc4c3-c3c(cc(O)c5c3C2C(C[C@H](C)O)=C(OC)C5=O)OCO4)C1=O` (stereo partly shown) [Compound 2], the 50% inhibitory concentration (IC50) with HT29 cells came to 1.8 ± 0.13 µM; in the experiment on SW480 cells it was 5.5 ± 1.3 µM; with HCT116 cells it was 1.2 ± 0.48 µM. Besides, the Ki at β-catenin/Tcf4 was 150 ± 19 µM; at β-catenin/APC-R3 it was 130 ± 0.38 µM.

For `Nc1nonc1C(=O)N1CCCC1` [Compound 23], the Ki on β-catenin/Tcf4 PPI [1] (setting [9]) was found to be 1700 ± 28 µM. The “inhibitory potency for the β-catenin/Tcf PPI in the biochemical assays” value against β-catenin/Tcf4 PPI [1] is reported as “some inhibitory activities”.
